Experiments:
[1] = test system: anti-citrullinated peptides/proteins antibodies (ACPA) in serum; details: 206 disease controls
Protocol: The MAP of the citrullinated peptide antigens according to the invention was diluted to a concentration of 20 μg/ml in phosphate buffered saline (PBS) and loaded into the wells of a polystyrene micro-titration plate (50 μl/well). […] Upon completion of the coating period, the wells containing the antigen, plus an equal number of wells which were used as controls, were treated for 1 hour at room temperature (RT) with 3% bovine serum albumin (BSA) in PBS. The patients' serum samples (diluted 1:200 in a buffer constituted by 1% BSA, 0.05% Tween X-100 in PBS) were then loaded onto the plate (50 μl/well) and left to incubate for 3 hours at RT. After the incubation period, one washing was performed with 1% PBS Tween X-100 and two washings were performed with PBS (150 μl/well). […] Upon completion of the incubation, after three washings as described above, the alkaline phosphatase substrate (p-nitrophenyl phosphate) was added to the wells and, in the presence of the enzyme, it produced a yellow product measurable by spectrophotometric techniques at a wavelength of 405 nm; its quantity was proportional to the titre of antibodies bound. The results of the test were expressed as the percentage of positivity, calculated by dividing the absorbance of each serum sample by the absorbance of a positive serum sample the value of which was set arbitrarily at 100.

[2] = test system: anti-CP antibodies (IgG, IgM, IgA) in patients' serum samples
Protocol: The MAP of the citrullinated peptide antigens according to the invention was diluted to a concentration of 20 μg/ml in phosphate buffered saline (PBS) and loaded into the wells of a polystyrene micro-titration plate (50 μl/well). […] Upon completion of the coating period, the wells containing the antigen, plus an equal number of wells which were used as controls, were treated for 1 hour at room temperature (RT) with 3% bovine serum albumin (BSA) in PBS. The patients' serum samples (diluted 1:200 in a buffer constituted by 1% BSA, 0.05% Tween X-100 in PBS) were then loaded onto the plate (50 μl/well) and left to incubate for 3 hours at RT. After the incubation period, one washing was performed with 1% PBS Tween X-100 and two washings were performed with PBS (150 μl/well). […] The antibody (50 μl/well) was then incubated for 3 hours at RT with agitation. Upon completion of the incubation, after three washings as described above, the alkaline phosphatase substrate (p-nitrophenyl phosphate) was added to the wells and, in the presence of the enzyme, it produced a yellow product measurable by spectrophotometric techniques at a wavelength of 405 nm; its quantity was proportional to the titre of antibodies bound. The results of the test were expressed as the percentage of positivity, calculated by dividing the absorbance of each serum sample by the absorbance of a positive serum sample the value of which was set arbitrarily at 100.
Serum samples of 104 patients suffering from RA, 97 normal healthy subjects (NHS), and 194 disease controls (systemic lupus erythematosus, systemic scleroderma, Sjogren syndrome, mixed cryoglobulinemia, psoriasic arthritis, ankylosing spondilytis, rheumatic polymialgia and infectious mononucleosis) were tested by this method using the peptide of formula (V).

[3] = test system: anti-CP IgG antibodies in RA patients' serum; details: cut-off 97.5th percentile of normal controls
Protocol: The ability to recognize specific antibodies in RA patients by MAP of formula (V), in comparison with the MAP of formula (VI) was evaluated by ELISA.
MAP of formula (V) and MAP of formula (VI) were diluted respectively to a concentration of 20 μg/ml and 5 μg/ml in PBS, loaded into the wells of a polystyrene micro-titration plate (50 μl/well), and left overnight at +4° C. Upon completion of the coating period, the wells were treated for 1 hour at RT with 3% BSA in PBS. The patients' serum samples (diluted 1:200 in a buffer constituted by 1% BSA, 0.05% Tween X-100 in PBS) were then loaded onto the plate (50 μl/well) and left to incubate for 3 hours at RT. After the incubation period, one washing was performed with 1% PBS Tween X-100 and two washings were performed with PBS (150 μl/well). An anti human-IgG antibody conjugated to the enzyme alkaline phosphatase (50 μl/well), diluted 1:3000 in 1% PBS BSA, 0.05% Tween X-100, was incubated for 3 hours at RT with stirring. Upon completion of the incubation, after three washings as described above, p-nitrophenyl phosphate was added to the wells and the absorbance at a wavelength of 405 nm was determined. The results of the test were expressed as the percentage of positivity, calculated by dividing the absorbance of each serum sample by the absorbance of a positive serum sample the value of which was set arbitrarily at 100.
Serum samples of 100 patients suffering from RA were tested by this method.

[4] = test system: anti-VCP2 antibodies (IgG) from RA sera; assay: ELISA of affinity-purified anti-VCP2 antibodies from RA sera (Example 5); format: binding, human; details: four preparations from 4 different RA sera
Protocol: FIG. 4. Isolation of anti-VCP2 antibodies from RA sera was performed according to the method described in example 4.
A citrullinated peptide or MAP according to the present invention was conjugated to CNBr-activated sepharose according to standard procedures known by one skilled in the art. Total immunoglobulins from sera containing anti-CP antibodies were precipitated with 50% saturated ammonium sulfate; the precipitates were dissolved in phosphate buffer (pH 7.4) and dialyzed overnight against PBS. Enriched immunoglobulin preparations were applied to the column, and the flowthrough was collected for subsequent analysis. The column was extensively washed with 20 mM Na2HPO4, 150 mM NaCl (pH 7.2), and the antibodies bound to the column were eluted by 0.1 M glycine buffer (pH 2.8) (0.5 ml/fraction), immediately neutralized with 50 μl Tris 1M (pH 8.0), and dialyzed overnight against PBS. The anti-CP antibody content in the eluates and flowthrough was tested by ELISA.

[5] = test system: autoantibodies in RA sera; assay: 79 RA patients tested for anti-CCP2, anti-CCP3, anti-VCP1 and anti-VCP2 (FIG. 1); format: binding, human
Source text: FIG. 1. […] The presence of different populations of autoantibodies is depicted in the block diagram. Number of RA sera positive (+) or negative (−) to anti-CCP2, anti-CCP3, anti-VCP1 [peptide of formula (VI)], and anti-VCP2 [peptide of formula (V)] are shown above the diagram.
Noteworthy, 7/79 (9%) anti-CCP2 and anti-CCP3 negative sera are positive to the peptide of formula (VI); 2/79 (3%) anti-CCP2 and anti-CCP3 negative sera are positive to peptide of formula (V); 1/79 (1%) anti-CCP2 and anti-CCP3 negative serum is positive to both peptides of formula (V) and formula (VI). Thus, formula (V) and (VI) allow to detect antibodies in a subgroup of anti-CCP negative RA patients (FIG. 1).

## (G Q S Cit G Q S Cit G Cit G Cit G Cit G Cit G Cit G K G)4 K2 K beta-Alanine [VCP2]
[1]; 100 RA, 100 NHS
  specificity in detecting ACPA in RA patients: high specificity
[1]; in particular IM and SLE
  antibodies detected in disease controls: no antibodies were detected
[2]; 97 NHS and 194 disease controls
  anti-CP antibodies found in normal healthy subjects and disease controls: less than 5%
[2]; 104 RA patients (41/104), cut-off 97.5th percentile of normal controls
  anti-CP IgA antibodies found in RA serum samples: 40%
[2]; 104 RA patients (48/104), cut-off 97.5th percentile of normal controls
  anti-CP IgM antibodies found in RA serum samples: 46%
[2]; 104 RA patients (67/104), cut-off 97.5th percentile of normal controls
  anti-CP IgG antibodies found in RA serum samples: 64%
[3]; 100 RA patients, IgG
  anti-CP MAP antibodies found in the RA cohort: 64%
[3]
  specificity: 95%
[4]
  reactivity of purified anti-VCP2 IgG with the antigen: very high reactivity
[5]; comparison of MAP of formula (V) and MAP of formula (VI)
  RA sera containing antibodies reacting with either one of the two MAP: 15%
[5]; of 79 RA patients
  anti-CCP2 and anti-CCP3 negative sera positive to the peptide: 3%
[5]; of 79 RA patients (1/79)
  anti-CCP2 and anti-CCP3 negative serum positive to both peptides: 1%
[5]; population of 79 RA patients
  positive RA sera: 52%

From patent publication US8900880B2, “Viral citrullinated peptides and uses thereof” (Toscana Biomarkers S.R.L., priority 2009, dated 2014)
